Measured values: ChEMBL document CHEMBL1201862, “PubChem BioAssay data set” (2004)
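48-hour exposure; five concentrations; linearly interpolated endpoints. At the GI50, growth is halved.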 The source made the active and inactive calls. Cut-off read from the data, not from the text of the source: active = GI50 up to about 1.1 µM and inactive = higher.

Columns and labels:
Assay in all cases: NCI anticancer screen, dose series, 48 h
786-0 = tested on: 786-0
SN12C = tested on: SN12C
T47D = tested on: T47D
BT-549 = tested on: BT-549
A549 = tested on: A549
M14 = tested on: M14
RPMI-8226 = tested on: RPMI-8226
MDA-MB-231 = tested on: MDA-MB-231
NCI-H460 = tested on: NCI-H460
U-251 = tested on: U-251
SR = tested on: SR
SF-295 = tested on: SF-295
SW-620 = tested on: SW-620
K562 = tested on: K562
OVCAR-5 = tested on: OVCAR-5
HL-60 = tested on: HL-60
NCI-H522 = tested on: NCI-H522
UACC-257 = tested on: UACC-257
OVCAR-4 = tested on: OVCAR-4
KM12 = tested on: KM12

Measured: GI50

Fc1ccc(N2C(=S)SC(=N\c3ccccc3)/C2=N/c2ccccc2)cc1
inactive: 786-0 > 100 µM | SN12C > 100 µM | T47D 25.5 µM | BT-549 > 100 µM | A549 > 79.8 µM | M14 > 100 µM | RPMI-8226 32.8 µM | MDA-MB-231 > 100 µM | NCI-H460 > 100 µM | U-251 > 87.7 µM | SR 25.1 µM | SF-295 > 100 µM | SW-620 > 100 µM | K562 14.9 µM | OVCAR-5 > 85.3 µM | HL-60 53.8 µM | NCI-H522 > 100 µM | UACC-257 > 67.1 µM | OVCAR-4 > 57.7 µM | KM12 73.1 µM

SC1=NC2=C(CSC/C2=C\c2ccccc2)C(c2ccccc2)N1 (stereo not given)
inactive: 786-0 34.2 µM | SN12C 38.1 µM | T47D 56.4 µM | BT-549 26.2 µM | A549 38.5 µM | M14 54.1 µM | RPMI-8226 35.2 µM | MDA-MB-231 45.1 µM | NCI-H460 33 µM | U-251 35 µM | SR 32.7 µM | SF-295 21.6 µM | SW-620 48.3 µM | K562 30.3 µM | OVCAR-5 > 100 µM | HL-60 15.2 µM | NCI-H522 59.4 µM | UACC-257 22.3 µM | OVCAR-4 > 100 µM | KM12 41 µM

CC(=O)CSCc1ccccn1
inactive: 786-0 97.1 µM | SN12C 75.5 µM | T47D 34.8 µM | BT-549 47.5 µM | A549 62.5 µM | M14 60.5 µM | RPMI-8226 12.7 µM | MDA-MB-231 75.9 µM | NCI-H460 30.6 µM | U-251 32.2 µM | SR 21.5 µM | SF-295 80.9 µM | SW-620 45.8 µM | K562 23.6 µM | OVCAR-5 > 100 µM | HL-60 29.1 µM | NCI-H522 6.9 µM | UACC-257 41.1 µM | OVCAR-4 83.8 µM | KM12 36.8 µM

CNC(=O)Nc1nc2cc([N+](=O)[O-])ccc2[nH]1
inactive: 786-0 > 100 µM | SN12C > 100 µM | T47D > 100 µM | BT-549 49.9 µM | A549 > 100 µM | M14 > 100 µM | RPMI-8226 > 100 µM | MDA-MB-231 > 100 µM | NCI-H460 7.55 µM | U-251 > 100 µM | SR 47.1 µM | SF-295 > 100 µM | SW-620 > 100 µM | K562 > 100 µM | OVCAR-5 > 100 µM | HL-60 49 µM | NCI-H522 44.1 µM | UACC-257 > 100 µM | OVCAR-4 > 100 µM | KM12 > 100 µM

C=C1C(=O)OC2CC(C)C(C(CC(C)=O)OC(C)=O)=CCC12 (stereo not given)
inactive: 786-0 2.74 µM | SN12C 4.27 µM | T47D 20.4 µM | BT-549 6.19 µM | A549 28.2 µM | M14 11 µM | RPMI-8226 3.87 µM | MDA-MB-231 13.5 µM | NCI-H460 17 µM | U-251 15.8 µM | SR 2.88 µM | SF-295 23.8 µM | SW-620 3.03 µM | K562 3.24 µM | OVCAR-5 17.6 µM | HL-60 3.25 µM | NCI-H522 1.73 µM | UACC-257 16.5 µM | OVCAR-4 17 µM | KM12 18.6 µM
